In patent US9765109B2, “2′-arabino-fluorooligonucleotide N3′→P5′ phosphoramidates: their synthesis and use” (Geron Corporation, priority 2000, dated 2017):

Key:
[1] = tested on: natural phosphodiester RNA strand; assay: Thermal denaturation (Tm) of duplexes with complementary RNA; type: binding; settings: for Tm, RNA: duplex; for Tm difference of duplex with RNA: relative to 2′-deoxy phosphodiester oligonucleotide (experiment 1)
Method: (§1) ^31P NMR spectra were obtained on a Varian 400 MHz spectrometer. ^31P NMR spectra were referenced against 85% aqueous phosphoric acid. Anion exchange HPLC was performed using a Dionex DX 500 Chromatography System, with a Pharmacia Biotech Mono Q HR 5/5 or 10/16 ion exchange columns. Ion exchange HPLC was performed on the Dionex DX 500 system, using a Pharmacia Mono Q HR 5/5 column. Buffer A and B were: 10 mM NaOH, pH12 and 10 mM NaOH, 1.5 M NaCl, pH12, respectively. Oligonucleotides were eluted using a 1.5%/min. linear gradient of buffer B in A; flow 0.5 mL/min. Mass spectral analysis was performed by Mass Consortium, San Diego, Calif. MALDI-TOF analysis of oligonucleotides was obtained using a PerSpective Biosystems Voyager Elite mass spectrometer with delayed extraction. Thermal dissociation experiments were conducted on a Cary Bio 100 UV-Vis spectrometer.
(§2) ^ad, r, and a correspond to the 2′-deoxy, 2′-ribo-fluoro and to 2′-arabino-fluoronucleosides respectively; p and n correspond to the internucleoside phosphodiester and N3′→P5′ phosphoramidate linkages, respectively; ^bmelting temperature, Tm (±0.5° C.), of the duplexes formed with natural phosphodiester ssDNA or RNA strands, or: ^etriplexes formed with dA/dT duplex part of d(A10C4T10) hairpin. Buffers: ^c150 mM NaCl, 10 mM sodium phosphate buffer pit 7.4—first number, or in: ^dthe same buffer containing an additional 10 mM magnesium chloride—second number; n.o or n.d—the melting transitions and Tm's were not observed or not determined, respectively.
(§3) The ability of N3′→P5′ phosphoramidate 2′-arabino-fluorooligonucleotides to form complexes with complementary DNA and RNA strands was examined and compared with related oligonucleotide analogues using thermal denaturation experiments. […] (compare experiments 1 and 2, Table 1). […] Substitution of 2′-deoxy-3′-aminonucleosides by 2′-arabino-fluoro-3′-amino counterparts stabilized duplexes, by about 2-7° C., with DNA and RNA in a low ionic strength buffer. […] (compare experiments 3 and 6, Table 1).

[2] = tested on: natural phosphodiester ssDNA; assay: Thermal denaturation (Tm) of duplexes with complementary DNA; type: binding; settings: for Tm, DNA: duplex
Method: as §1, §2, §3

[3] = tested on: dA/dT duplex part of d(A10C4T10) hairpin; assay: Thermal denaturation (Tm) of triplexes with dsDNA; type: binding; settings: for Tm, dsDNA: triplex
Method: as §1
as §2, with “respectively. […]” for “respectively.”

[4] = Stability in concentrated aqueous ammonia, judged by IE HPLC; type: physicochemical; settings: 24 hours, 55° C., IE HPLC analysis
Method: (§4) It was reported that the 2′-ribo-fluoropyrimidine containing oligonucleotides with N3′→P5′ phosphoramidate or with phosphodiester internucleoside linkages are somewhat labile during treatment with aqueous ammonia at 55° C. (Schultz et al., Nucl. Acids Res., 24:2966-2973, 1996; Krug et al., Nucleosides Nucleotides, 8:1473-1483, 1989). Under these basic conditions pyrimidine-O2 mediated elimination of the 2′-fluorine atom takes place, resulting in formation of 2,3′-O-anhydronucleosides and multiple products of their consequent reactions with aqueous ammonia, including 2′-arabino-hydroxyl nucleosides (Krug et al., Nucleosides Nucleotides, 8:1473-1483, 1989). In contrast, the prepared 2′-arabino-fluoro phosphoramidate oligonucleotides were stable under these conditions.

[5] = Acid stability, half-life at pH 3; type: physicochemical
Method: as §4

[6] = single value given, buffer not stated
[7] = 150 mM NaCl, 10 mM sodium phosphate buffer (first number)
[8] = same buffer with additional 10 mM magnesium chloride (second number)

Q: With “a(Cn^fUn^fCn^fUn^fCn^fUn^fGnCn^fCn^f) (CUCUCUGCC; 2'-arabino-fluoro phosphoramidate backbone; contains 2 prime-arabino-fluoronucleosides; test compounds) [SEQ ID NO:10, mixed base 2′-arabino-fluoro phosphoramidate oligonucleotide]” as the substance, how does the “Tm, RNA” value [1, 6] read?
A: 66.8 °C

Q: Which results are given for “a(Up^fUp^fUp^fUp^fUp^fUp^fUp^fUp^fUp^fT) [SEQ ID NO:5]”?
A: Tm, RNA [1, 7]: 27.5 °C; Tm, RNA [1, 8]: 28.6 °C; Tm difference of duplex with RNA [1]: 8.3-9.6 °C; Tm, DNA [2, 7]: 17.0 °C; Tm, DNA [2, 8]: 25.0 °C; Tm, dsDNA [3, 7]: < 14 °C; Tm, dsDNA [3, 8]: 20.9 °C

Q: Which “Tm, RNA” value [1, 6] does the source give for “d(CnUnCnUnCnUnGnCnCn) (CUCUCUGCC; DNA, backbone, methylation of C and T or U not given here; phosphoramidate linkages) [SEQ ID NO:9, mixed base 2′-deoxy phosphoramidate oligonucleotide]” here?
A: 66.7 °C

Q: Which “Effect of increasing buffer ionic strength on Tm of duplex with RNA” value [1] does the source give for “d(UnUnUnUnUnUnUnUnUnT) (UUUUUUUUUT; N3′→P5′ phosphoramidate; contains 2 prime-deoxy nucleosides; test compounds) [SEQ ID NO:6, 2′-deoxy N3′→P5′ phosphoramidate oligonucleotide]” here?
A: no effect

Q: And the “Tm, RNA” value [1, 7]?
A: 38.1 °C

Q: What about the “Tm, RNA” value [1, 8] of the same substance?
A: 47.2 °C

Q: And the “Tm difference of duplexes” value ([1]; relative to 2′-arabino-fluoro phosphodiester SEQ ID NO:5 (experiments 3 and 6), DNA and RNA)?
A: 8.7-12.5 °C

Q: What about the “Tm, DNA” value [2, 7] of the same substance?
A: 18.5 °C

Q: And the “Tm, DNA” value [2, 8]?
A: 38.2 °C

Q: What about the “Tm, dsDNA” value [3, 7] of the same substance?
A: <15; n.d ° C.

Q: For “d(UpUpUpUpUpUpUpUpUpT) (UUUUUUUUUT; contains 2 prime-deoxy nucleosides; test compounds) [SEQ ID NO:3, 2′-deoxy phosphodiester oligonucleotide]”, which “Tm, RNA” value [1, 7] is on record?
A: 17.9 °C

Q: And the “Tm, RNA” value [1, 8]?
A: 20.3 °C

Q: And the “Tm, DNA” value [2, 7]?
A: 16.7 °C

Q: What about the “Tm, DNA” value [2, 8] of the same substance?
A: 24.6 °C

Q: What about the “Tm, dsDNA” value [3, 7] of the same substance?
A: n.o;^c n.o^d

Q: What about the “Tm, dsDNA” value [3, 8] of the same substance?
A: n.o;^c n.o^d

Q: Which “Tm, RNA” value [1, 7] does the source give for “dT-a(Un^fUn^fUn^fUn^fUn^fUn^fUn^fUn^f Un^f) (TUUUUUUUUU; 2′-arabino-fluoro phosphoramidate; 5′ dT; contains 2 prime-deoxy and 2 prime-arabino- fluoronucleosides; test compounds) [SEQ ID NO:8, 2′-arabino-fluoro N3′→P5′ phosphoramidate decanucleotide]” here?
A: 40.0; 40.0 °C

Q: And the “Tm, RNA” value [1, 8]?
A: 40.0; 40.0 °C

Q: And the “Tm, DNA” value [2, 7]?
A: 25.7 °C

Q: And the “Tm, DNA” value [2, 8]?
A: 37.0 °C

Q: What about the “Tm, dsDNA” value [3, 7] of the same substance?
A: 22.0 °C

Q: What about the “Tm, dsDNA” value [3, 8] of the same substance?
A: 31.2 °C

Q: And the “Relative stability of triplex with dsDNA” value ([3]; versus SEQ ID NO:6 and SEQ ID NOs:3-5, but not SEQ ID NO:7)?
A: more stable triplex

Q: And the “Stability on exposure to concentrated aqueous ammonia” value [4]?
A: practically intact

Q: And the “Base and acid stability (summary statement)” value [5]?
A: base and acid stable

Q: With “dT-r(Un^fUn^fUn^fUn^fUn^fUn^fUn^fUn^f Un^f) (TUUUUUUUUU; 2′-ribo-fluoro phosphoramidate; 5′ dT; contains 2 prime-deoxy and 2 prime-ribo- fluoronucleotides; test compounds) [SEQ ID NO:7, 2′-ribo-fluoro N3′→P5′ phosphoramidate oligonucleotide]” as the substance, how does the “Tm, RNA” value [1, 7] read?
A: 55.5 °C

Q: What about the “Tm, RNA” value [1, 8] of the same substance?
A: 61.9 °C

Q: And the “Tm difference of complexes with both DNA and RNA strands” value ([1]; most stable complexes, compare experiments 5, 6 and 7)?
A: 14-21 °C

Q: And the “Tm, DNA” value [2, 7]?
A: 37.4 °C

Q: What about the “Tm, DNA” value [2, 8] of the same substance?
A: 56.3 °C

Q: What about the “Tm, dsDNA” value [3, 7] of the same substance?
A: 42.2 °C

Q: What about the “Tm, dsDNA” value [3, 8] of the same substance?
A: 54.1 °C

Q: What about the “Stability on exposure to concentrated aqueous ammonia” value [4] of the same substance?
A: converted into a very complex mixture of products

Q: What does the source list for “r(Up^fUp^fUp^fUp^fUp^fUp^fUp^fUp^fUp^fT) (UUUUUUUUUT; 2′-ribo-fluoro; contains 2 prime-ribo-fluoronucleosides; test compounds) [SEQ ID NO:4, 2′-ribo-fluoro phosphodiester decanucleotide]”?
A: Tm, RNA [1, 7]: 32.9 °C; Tm, RNA [1, 8]: 36.6 °C; Tm difference of duplex with RNA [1]: 15.0-16.3 °C; Tm, DNA [2, 7]: n.o; Tm, DNA [2, 8]: 18.0 °C; Tm difference of complex with DNA (destabilization) ([2]; relative to 2′-deoxy phosphodiester oligonucleotide (experiments 1 and 2)): −6.7-16 °C; Tm, dsDNA [3, 7]: n.o; n.o; Tm, dsDNA [3, 8]: n.o; n.o
